# According to the supplement of paper PMC10307832:
# Key:
# Test in all cases: relative viability (nuclei count vs DMSO), 5 days (fraction); higher = more cells survive
# [1] = compound: CS(=O)(=O)c1ccc(-c2cnc(N)c(C(=O)Nc3ccccc3)n2)cc1 [VE-821] + CS(=O)(=O)CCNCc1ccc(-c2ccc3ncnc(Nc4ccc(OCc5cccc(F)c5)c(Cl)c4)c3c2)o1 [Lapatinib] (partner 2 µM)
# How it was run: (§1)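 Lung cancer cell lines were pin-tool dosed in 1536-well plates on the day after seeding, with either a lone drug or a fixed anchor-drug dose plus five library-drug doses (not always all listed) in √10 steps. Nuclei were counted on 4× images after 5 days. Relative viability is the ratio of treated-well to vehicle-well nuclei counts, with each value a median of duplicate plates.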
# [2] = compound: N#CC[C@H](C1CCCC1)n1cc(-c2ncnc3[nH]ccc23)cn1 [Ruxolitinib] + CC(=O)Nc1cccc(-n2c(=O)n(C3CC3)c(=O)c3c(Nc4ccc(I)cc4F)n(C)c(=O)c(C)c32)c1 [Trametinib] (partner 0.02 µM)
# How it was run: as §1
# [3] = compound: N#CC[C@H](C1CCCC1)n1cc(-c2ncnc3[nH]ccc23)cn1 [Ruxolitinib] + O=C(c1cc(Cc2n[nH]c(=O)c3ccccc23)ccc1F)N1CCN(C(=O)C2CC2)CC1 [Olaparib] (partner 8 µM)
# How it was run: as §1
# [4] = compound: CS(=O)(=O)c1ccc(-c2cnc(N)c(C(=O)Nc3ccccc3)n2)cc1 [VE-821] + NC(=O)Nc1cc(-c2cccc(F)c2)sc1C(=O)N[C@H]1CCCNC1 [AZD7762] (partner 0.2 µM)
# How it was run: as §1
Cell Line,relative viability ([1]; first compound 0.08 µM),relative viability ([1]; first compound 0.253 µM),relative viability ([1]; first compound 0.8 µM),relative viability ([1]; first compound 2.53 µM),relative viability ([1]; first compound 8 µM),relative viability ([2]; first compound 0.08 µM),relative viability ([2]; first compound 0.253 µM),relative viability ([2]; first compound 0.8 µM),relative viability ([2]; first compound 2.53 µM),relative viability ([2]; first compound 8 µM),relative viability ([3]; first compound 0.08 µM),relative viability ([3]; first compound 0.253 µM),relative viability ([3]; first compound 0.8 µM),relative viability ([3]; first compound 2.53 µM),relative viability ([3]; first compound 8 µM),relative viability ([4]; first compound 0.08 µM),relative viability ([4]; first compound 0.253 µM),relative viability ([4]; first compound 0.8 µM),relative viability ([4]; first compound 2.53 µM),relative viability ([4]; first compound 8 µM)
NCI-H1993,0.947,0.837,0.75,0.784,0.826,0.433,0.734,0.573,0.49,0.443,0.879,0.953,1.42,1.47,1.02,0.958,0.669,0.603,0.723,0.552
NCI-H2085,0.8,0.758,0.507,0.815,0.563,0.639,0.548,0.624,0.483,0.575,0.781,0.804,0.755,0.64,0.588,0.952,0.843,0.366,–,0.271
NCI-H2087,0.987,1.12,1.13,1.26,1.02,0.173,–,0.22,0.263,0.27,0.433,–,0.454,0.631,0.579,1.6,1.08,1.12,1.04,0.66
NCI-H2126,0.741,0.713,0.747,0.677,0.6,0.559,0.543,0.607,0.58,0.664,0.923,0.933,0.958,0.879,0.811,1.07,1.05,0.987,0.928,0.615
NCI-H2170,0.289,0.278,0.256,0.272,0.272,0.868,0.895,0.879,0.867,0.933,0.584,0.686,0.592,0.579,0.5,0.842,0.766,0.771,0.394,0.199
NCI-H2347,1.02,1.05,0.664,1.03,1.14,0.296,0.272,0.287,0.247,0.334,0.527,0.627,0.644,0.599,0.572,0.703,0.746,0.42,0.698,0.531
NCI-H2405,1.15,0.976,1.03,1.31,1.05,0.674,0.66,0.725,0.428,0.398,0.931,0.838,0.882,0.633,0.573,0.791,0.677,0.598,0.553,0.25
NCI-H3122,1.06,1,0.926,1.03,1,0.232,0.192,0.21,0.167,0.227,0.7,0.635,0.711,0.627,0.644,1.05,0.857,0.97,0.654,0.545
PC-3 [JPC-3],0.512,0.474,0.461,0.482,0.424,–,0.711,0.79,0.654,0.64,–,1.07,1.13,1.03,0.922,0.882,0.728,0.99,0.798,0.62
PC-14,0.336,0.297,0.286,0.32,0.277,–,0.829,1.17,0.45,0.625,–,0.302,0.233,0.353,0.298,0.362,0.232,0.315,0.338,0.187
RERF-LC-KJ,0.92,0.756,0.798,0.772,0.715,0.797,0.978,0.939,0.834,0.906,0.966,0.881,0.948,0.844,0.626,0.994,0.975,0.974,1.03,0.688
